Measurements: patent US20080009418A1, “Selective Inhibitors” (Alchemia LTD., priority 2004, published 2008)

Legend:
Human δ-opioid (DOP) = biological target: T1, Human δ-opioid (DOP) (Homo sapiens, UniProt P41143); test: Radioligand binding, human δ-opioid (DOP) membranes, FlashPlate, [3H]-Bremazocine; details: compound at 10 μM; human δ-opioid (DOP) membranes
T1 construct: purchased Perkin Elmer Biosignal
Summary of the method: (§1)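 Cloned human receptor membranes were coated onto FlashPlate wells and incubated with radioligand and compound (added from a 0.5 mM DMSO daughter plate) for 1 hour at room temperature in the dark. Scintillation counting gave percent inhibition, with DMSO defining total and reference ligand defining non-specific binding.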

Human κ-Opioid (KOP) = biological target: T2, Human κ-Opioid (KOP) (Homo sapiens, UniProt P41145); test: Radioligand binding, human κ-opioid (KOP) membranes, filtration, [3H]-Diprenorphine; details: compound at 10 μM; human κ-opioid (KOP) membranes
T2 construct: purchased Perkin Elmer Biosignal
Summary of the method: (§2)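 Membranes from cloned human receptors were incubated with compound and radioligand for 1 hour at room temperature. Bound ligand was collected on 0.3% PEI-soaked filters, washed with cold 50 mM Tris-HCl pH 7.4, and counted by scintillation. Percent inhibition was computed against DMSO totals and reference-ligand nonspecific wells.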

Human Melanocortin (MC3) = biological target: T3, Human Melanocortin (MC3) (Homo sapiens, UniProt P41968); test: Radioligand binding, human melanocortin MC3 membranes, FlashPlate, [125I]-NDP-αMSH; details: compound at 10 μM; human melanocortin MC3 membranes
T3 construct: purchased Perkin Elmer Biosignal
Summary of the method: as §1

Human Melanocortin (MC4) = biological target: T4, Human Melanocortin (MC4) (Homo sapiens, UniProt P32245); test: Radioligand binding, human melanocortin MC4 membranes, FlashPlate, [125I]-NDP-αMSH; details: compound at 10 μM; human melanocortin MC4 membranes
T4 construct: purchased Perkin Elmer Biosignal
Summary of the method: as §1

Human melanocortin (MC5) = biological target: T5, Human melanocortin (MC5) (Homo sapiens, UniProt P33032); test: Radioligand binding, human melanocortin MC5 membranes, FlashPlate, [125I]-NDP-αMSH; details: compound at 10 μM; human melanocortin MC5 membranes
T5 construct: purchased Perkin Elmer Biosignal
Summary of the method: as §1

[1] = biological target: T6, Human melanin-concentrating hormone (MCH1) (Homo sapiens, UniProt Q99705); test: Radioligand binding, human melanin-concentrating hormone MCH1 membranes, FlashPlate, [125I]-S36057; details: compound at 10 μM; human MCH1 membranes
T6 construct: purchased Perkin Elmer Biosignal
Summary of the method: as §1

Human μ-opioid (MOP) = biological target: T7, Human μ-opioid (MOP) (Homo sapiens, UniProt P35372); test: Radioligand binding, human μ-opioid (MOP) membranes, FlashPlate, [3H]-Naloxone; details: compound at 10 μM; human μ-opioid (MOP) membranes
T7 construct: purchased Perkin Elmer Biosignal
Summary of the method: as §1

Human neurokinin (NK1) = biological target: T8, Human neurokinin (NK1) (Homo sapiens, UniProt P25103); test: Radioligand binding, human neurokinin NK1 membranes, filtration, [125I]-Substance P; details: compound at 10 μM; human neurokinin NK1 membranes
T8 construct: purchased Perkin Elmer Biosignal
Summary of the method: as §2

[2] = biological target: T9, Human neuropeptide Y (NPY-Y1) (Homo sapiens, UniProt P25929); test: Radioligand binding, human neuropeptide Y NPY-Y1 membranes, FlashPlate, [125I]-PYY; details: compound at 10 μM; human NPY-Y1 membranes
T9 construct: purchased Perkin Elmer Biosignal
T9 sequence (P25929 1-384): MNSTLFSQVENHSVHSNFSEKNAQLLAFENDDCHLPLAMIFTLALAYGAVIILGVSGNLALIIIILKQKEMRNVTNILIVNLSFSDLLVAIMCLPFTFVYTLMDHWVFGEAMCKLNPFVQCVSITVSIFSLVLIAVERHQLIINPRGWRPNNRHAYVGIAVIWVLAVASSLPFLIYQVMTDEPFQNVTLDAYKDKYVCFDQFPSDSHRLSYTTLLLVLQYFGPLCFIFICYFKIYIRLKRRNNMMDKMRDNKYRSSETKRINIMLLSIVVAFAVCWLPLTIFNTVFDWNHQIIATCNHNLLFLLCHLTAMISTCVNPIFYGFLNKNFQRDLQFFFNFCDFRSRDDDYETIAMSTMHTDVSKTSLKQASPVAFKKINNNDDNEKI
Summary of the method: as §1

Human opioid (ORL1) = biological target: T10, Human opioid (ORL1) (Homo sapiens, UniProt P41146); test: Radioligand binding, human opioid ORL1 membranes, FlashPlate, [125I]-Nociceptin; details: compound at 10 μM; human ORL1 membranes
T10 construct: purchased Perkin Elmer Biosignal
Summary of the method: as §1

Mouse urotensin (mUR2) = biological target: T11, Mouse urotensin (mUR2) (Mus musculus, UniProt Q8VIH9); test: Radioligand binding, mouse urotensin mUR2 membranes, FlashPlate, [125I]-Urotensin II; details: compound at 10 μM; mouse urotensin mUR2 membranes
T11 construct: purchased Perkin Elmer Biosignal
T11 sequence (Q8VIH9 1-385): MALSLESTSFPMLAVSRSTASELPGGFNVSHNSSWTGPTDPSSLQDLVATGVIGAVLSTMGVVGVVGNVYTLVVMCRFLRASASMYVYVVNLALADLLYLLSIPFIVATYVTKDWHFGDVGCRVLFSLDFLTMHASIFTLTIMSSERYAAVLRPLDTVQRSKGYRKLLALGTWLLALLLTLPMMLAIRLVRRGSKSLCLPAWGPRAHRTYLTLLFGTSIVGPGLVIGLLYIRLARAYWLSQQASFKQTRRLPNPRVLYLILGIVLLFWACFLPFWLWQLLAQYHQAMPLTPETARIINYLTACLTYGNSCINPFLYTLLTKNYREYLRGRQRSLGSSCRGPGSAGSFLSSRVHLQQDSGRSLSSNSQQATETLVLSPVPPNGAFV
Summary of the method: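 Cloned mouse urotensin (mUR2) receptor membranes from Perkin Elmer Biosignal were immobilized in FlashPlate microplates using a proprietary coating. Each well got 19.5 μl buffer, then 0.5 μl of DMSO, reference ligand, or compound. Adding 5 μl of [125I]-Urotensin II, diluted to 5× final concentration in binding buffer, started binding. Plates were sealed with TopSeal-A and incubated 1 hour at room temperature in the dark. Wells were counted for 30 seconds each on a TopCount after a 60-second delay, and percentage inhibition was calculated.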

T8 sequence (P25103 whole entry): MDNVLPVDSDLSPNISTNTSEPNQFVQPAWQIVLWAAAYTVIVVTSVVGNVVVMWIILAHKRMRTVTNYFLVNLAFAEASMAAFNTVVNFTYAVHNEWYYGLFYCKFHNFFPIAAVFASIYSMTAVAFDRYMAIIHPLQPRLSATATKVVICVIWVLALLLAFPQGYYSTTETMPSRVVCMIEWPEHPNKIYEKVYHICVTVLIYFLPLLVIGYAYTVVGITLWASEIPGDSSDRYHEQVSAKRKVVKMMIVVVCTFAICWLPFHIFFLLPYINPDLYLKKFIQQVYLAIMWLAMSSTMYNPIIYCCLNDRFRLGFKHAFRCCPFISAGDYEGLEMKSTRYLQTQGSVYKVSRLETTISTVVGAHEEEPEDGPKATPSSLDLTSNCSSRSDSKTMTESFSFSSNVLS
T1 sequence (P41143 whole entry): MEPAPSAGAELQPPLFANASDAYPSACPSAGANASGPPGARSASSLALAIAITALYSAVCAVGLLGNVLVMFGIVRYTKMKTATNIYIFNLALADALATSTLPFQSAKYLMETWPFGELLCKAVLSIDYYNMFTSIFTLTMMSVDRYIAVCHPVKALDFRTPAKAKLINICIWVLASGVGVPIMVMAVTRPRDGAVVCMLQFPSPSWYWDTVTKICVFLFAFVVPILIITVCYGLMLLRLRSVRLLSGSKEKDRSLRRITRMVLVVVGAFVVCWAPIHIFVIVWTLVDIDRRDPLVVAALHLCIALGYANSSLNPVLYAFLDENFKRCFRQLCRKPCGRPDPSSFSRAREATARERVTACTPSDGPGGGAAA
T7 sequence (P35372 whole entry): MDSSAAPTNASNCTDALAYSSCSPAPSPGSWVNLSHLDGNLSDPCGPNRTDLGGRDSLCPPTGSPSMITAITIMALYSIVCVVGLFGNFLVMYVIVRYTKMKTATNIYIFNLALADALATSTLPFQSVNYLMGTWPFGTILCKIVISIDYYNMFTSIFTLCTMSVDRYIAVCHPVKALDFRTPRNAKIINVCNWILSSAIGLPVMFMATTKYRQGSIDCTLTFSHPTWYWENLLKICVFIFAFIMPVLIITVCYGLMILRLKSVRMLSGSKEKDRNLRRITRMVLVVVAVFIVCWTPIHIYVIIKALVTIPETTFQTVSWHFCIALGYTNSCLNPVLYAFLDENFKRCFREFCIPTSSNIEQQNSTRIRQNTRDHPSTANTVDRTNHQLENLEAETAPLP
T4 sequence (P32245 whole entry): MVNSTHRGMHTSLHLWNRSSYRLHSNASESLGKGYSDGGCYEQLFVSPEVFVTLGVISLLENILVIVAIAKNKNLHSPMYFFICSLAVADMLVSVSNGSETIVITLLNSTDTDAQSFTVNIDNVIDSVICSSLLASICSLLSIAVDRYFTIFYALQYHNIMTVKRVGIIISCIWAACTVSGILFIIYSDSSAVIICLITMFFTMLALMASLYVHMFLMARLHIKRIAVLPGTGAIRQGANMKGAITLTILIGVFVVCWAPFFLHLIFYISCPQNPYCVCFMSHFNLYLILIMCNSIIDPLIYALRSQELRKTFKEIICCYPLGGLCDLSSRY
T6 sequence (Q99705 whole entry): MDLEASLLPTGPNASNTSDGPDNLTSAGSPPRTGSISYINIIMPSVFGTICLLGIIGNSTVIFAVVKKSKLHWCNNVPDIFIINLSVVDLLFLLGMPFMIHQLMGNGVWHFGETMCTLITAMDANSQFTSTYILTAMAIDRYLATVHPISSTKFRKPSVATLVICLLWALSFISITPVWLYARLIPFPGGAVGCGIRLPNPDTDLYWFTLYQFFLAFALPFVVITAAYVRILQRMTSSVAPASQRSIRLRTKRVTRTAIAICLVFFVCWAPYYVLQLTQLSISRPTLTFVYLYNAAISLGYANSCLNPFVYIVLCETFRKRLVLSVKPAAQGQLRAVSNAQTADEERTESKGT
T5 sequence (P33032 whole entry): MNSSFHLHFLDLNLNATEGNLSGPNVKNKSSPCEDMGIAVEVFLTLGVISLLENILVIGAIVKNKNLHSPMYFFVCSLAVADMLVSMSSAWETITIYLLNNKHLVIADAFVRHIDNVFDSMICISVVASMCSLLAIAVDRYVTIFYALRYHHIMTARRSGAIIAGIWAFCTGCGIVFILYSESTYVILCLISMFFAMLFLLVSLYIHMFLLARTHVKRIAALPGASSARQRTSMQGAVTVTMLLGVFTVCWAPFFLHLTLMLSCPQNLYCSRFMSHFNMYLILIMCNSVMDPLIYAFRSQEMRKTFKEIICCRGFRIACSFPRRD
T10 sequence (P41146 whole entry): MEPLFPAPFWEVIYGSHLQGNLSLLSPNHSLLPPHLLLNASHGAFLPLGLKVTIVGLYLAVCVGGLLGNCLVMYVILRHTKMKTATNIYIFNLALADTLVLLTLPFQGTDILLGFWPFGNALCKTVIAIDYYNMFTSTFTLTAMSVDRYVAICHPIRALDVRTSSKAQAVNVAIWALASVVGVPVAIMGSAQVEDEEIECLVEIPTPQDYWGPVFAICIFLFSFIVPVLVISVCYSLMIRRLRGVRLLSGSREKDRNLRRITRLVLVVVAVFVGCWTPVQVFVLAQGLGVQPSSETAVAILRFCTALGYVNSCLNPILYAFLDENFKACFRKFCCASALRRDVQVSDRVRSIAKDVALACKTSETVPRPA
T2 sequence (P41145 whole entry): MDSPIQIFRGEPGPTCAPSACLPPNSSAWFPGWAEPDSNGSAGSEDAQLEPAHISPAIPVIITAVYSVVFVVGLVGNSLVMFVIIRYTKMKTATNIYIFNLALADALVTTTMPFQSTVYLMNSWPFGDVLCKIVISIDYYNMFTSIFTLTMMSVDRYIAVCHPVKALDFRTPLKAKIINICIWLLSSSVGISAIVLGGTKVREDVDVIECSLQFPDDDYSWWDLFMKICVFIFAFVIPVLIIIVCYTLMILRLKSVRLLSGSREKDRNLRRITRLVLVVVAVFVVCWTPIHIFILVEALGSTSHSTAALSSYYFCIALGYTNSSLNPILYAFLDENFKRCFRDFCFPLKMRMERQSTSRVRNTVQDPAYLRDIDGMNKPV
T3 sequence (P41968 whole entry): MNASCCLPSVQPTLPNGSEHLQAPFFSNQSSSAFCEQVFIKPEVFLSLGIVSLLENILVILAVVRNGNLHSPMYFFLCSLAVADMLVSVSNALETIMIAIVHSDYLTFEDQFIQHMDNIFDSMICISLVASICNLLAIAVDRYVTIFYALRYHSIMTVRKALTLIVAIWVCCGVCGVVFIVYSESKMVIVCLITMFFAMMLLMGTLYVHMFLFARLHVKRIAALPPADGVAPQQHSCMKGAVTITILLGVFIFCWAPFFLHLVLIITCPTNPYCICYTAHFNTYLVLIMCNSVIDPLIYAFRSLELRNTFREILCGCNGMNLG

| Compound | A1 radioligand binding inhibition (Human δ-opioid (DOP)) | A2 radioligand binding inhibition (Human κ-Opioid (KOP)) | A3 radioligand binding inhibition (Human Melanocortin (MC3)) | A4 radioligand binding inhibition (Human Melanocortin (MC4)) | A5 radioligand binding inhibition (Human melanocortin (MC5)) | A6 radioligand binding inhibition [1] | A7 radioligand binding inhibition (Human μ-opioid (MOP)) | A8 radioligand binding inhibition (Human neurokinin (NK1)) | A9 radioligand binding inhibition [2] | A10 radioligand binding inhibition (Human opioid (ORL1)) | A11 radioligand binding inhibition (Mouse urotensin (mUR2)) |
| --- | --- | --- | --- | --- | --- | --- | --- | --- | --- | --- | --- |
| COC[C@H]1OC(OCc2ccc(Cl)cc2)[C@H](NC(=O)CCCNC(=N)N)[C@@H](OCc2ccc(Cl)cc2)[C@@H]1O (stereo partly drawn) [compound 39] | − (“−” indicates less than 50% inhibition at 10 μM) | − (“−” indicates less than 50% inhibition at 10 μM) | − (“−” indicates less than 50% inhibition at 10 μM) | − (“−” indicates less than 50% inhibition at 10 μM) | − (“−” indicates less than 50% inhibition at 10 μM) | + (“+” indicates greater than 50% inhibition at 10 μM) | − (“−” indicates less than 50% inhibition at 10 μM) | + (“+” indicates greater than 50% inhibition at 10 μM) | − (“−” indicates less than 50% inhibition at 10 μM) | − (“−” indicates less than 50% inhibition at 10 μM) | − (“−” indicates less than 50% inhibition at 10 μM) |
| COC[C@H]1OC(OCCc2ccccc2)[C@H](NC(=O)CNC(=N)N)[C@@H](OCc2ccc(-c3ccccc3)cc2)[C@@H]1O (stereo partly drawn) [compound 40] | − (“−” indicates less than 50% inhibition at 10 μM) | − (“−” indicates less than 50% inhibition at 10 μM) | + (“+” indicates greater than 50% inhibition at 10 μM) | + (“+” indicates greater than 50% inhibition at 10 μM) | + (“+” indicates greater than 50% inhibition at 10 μM) | + (“+” indicates greater than 50% inhibition at 10 μM) | − (“−” indicates less than 50% inhibition at 10 μM) | − (“−” indicates less than 50% inhibition at 10 μM) | − (“−” indicates less than 50% inhibition at 10 μM) | − (“−” indicates less than 50% inhibition at 10 μM) | − (“−” indicates less than 50% inhibition at 10 μM) |
| COC[C@H]1OC(OCCc2ccccc2)[C@H](NC(=O)CCNC(=N)N)[C@@H](OCc2ccc(-c3ccccc3)cc2)[C@@H]1O (stereo partly drawn) [compound 41] | − (“−” indicates less than 50% inhibition at 10 μM) | − (“−” indicates less than 50% inhibition at 10 μM) | − (“−” indicates less than 50% inhibition at 10 μM) | + (“+” indicates greater than 50% inhibition at 10 μM) | + (“+” indicates greater than 50% inhibition at 10 μM) | + (“+” indicates greater than 50% inhibition at 10 μM) | − (“−” indicates less than 50% inhibition at 10 μM) | + (“+” indicates greater than 50% inhibition at 10 μM) | − (“−” indicates less than 50% inhibition at 10 μM) | − (“−” indicates less than 50% inhibition at 10 μM) | − (“−” indicates less than 50% inhibition at 10 μM) |
